Test system: colon carcinoma cell lines
Assay: Inhibition of the proliferation of tumour cells in vitro (propidium iodide uptake)
Type: cell-based
Details: 72 h, 10,000 cells per well, 3 days incubation at 37° C., propidium iodide/NP40 fluorescence, % of control
From the text: The antiproliferative action can be tested in an HCT116 proliferation assay.
The present experimental description describes the inhibition of tumour cell proliferation by active ingredients.
The cell proliferation is estimated by measurement of the uptake of propidium iodide. […] It is prevented from entering healthy cells. However, if cells have been killed by addition of the detergent NP40, cell membrane and nuclear membrane become permeable. PI attaches itself to the DNA of the cell nuclei and fluoresces in this complex. This fluorescence is measured in the fluorimeter.
commercially available colon carcinoma cell lines
10,000 cells are plated out per well, in a volume of 180 μl, in a 96-hole plate. The outer rows A1-12, 1A-H, 12A-H and H1-12 are only filled with 200 μl of medium or buffer.
The cells are incubated for 24 hours, at 37° C. and 10% CO2 gassing.
In order to test active substances, the corresponding dilutions must first be produced and assigned to the wells. The scheme of a 1:3 dilution indicated here as an example can be varied correspondingly as desired. The scheme described is designed for 4 test substances.
20 μl of medium, solvent dilution or the corresponding dilution of the positive control (IC50) are pipetted into these holes.
Substance groups (column B-G, wells 2-9): 20 μl of substance dilution are pipetted into these holes.
147 μl of medium is introduced into each of the wells of row B of the extra plate in columns 1, 2, 3, 4, and 3 μl of the test substance are added (=300 μM). 100 μl of medium are introduced into rows C-G, columns 1-4. 50 μl are then transferred into row C using a multichannel pipette, mixed 8×, and 50 μl are then transferred from this row into row D. This is continued correspondingly until row G has been reached, in which, after mixing, 50 μl of the dilution are removed and discarded. 100 μl of each desired dilution are now located in the extra plate, and it is now only necessary to transfer 20 μl directly into the test plate.
The plate is incubated at 37° C. and 10% CO2 gassing for 3 days.
The cells multiplying in this time are determined by means of propidium iodide.
20 μl of PI stock solution and 10 μl of NP40 stock solution are required per well. Since each plate has 72 wells charged with PI and with NP40, 1440 μl of the PI stock solution and 720 μl of the NP40 stock solution are required per plate. Taking into account pipetting losses, 1.8 ml of PI stock solution are thus taken and mixed with 0.9 ml of the NP40 stock solution immediately before pipetting in. 30 μl of the PI/NP40 mixture are now pipetted into each of the wells of the plate, each of which contain 200 μl of medium. The plate is subsequently placed in the incubator for 2 hours.
The plate(s) is measured in a fluorescence photometer at a wavelength Ex. 520 nm and Em of 620 nm. The background (=medium+PI) is subtracted from all values, which are subsequently averaged (double values) and expressed or calculated in % of control.
An IC50 (half-maximum action) can now be calculated using a statistics program such as, for example, RS1.
Prepare the desired stock solution at […] in DMSO. Adjust to ten times the concentration to be tested in the cell culture (see above) by dilution in culture medium.

Row | Compound | IC50
1 | O=C(CC(c1ccccc1)c1ccccc1)Nc1cc(Cl)c2cccnc2c1O [Compound A1, N-(5-chloro-8-hydroxyquinolin-7-yl)-3,3-diphenylpropionamide] | 90 nM
2 | O=C(Nc1ccc(C(F)(F)F)cc1)Nc1ccc2cccnc2c1O [Compound A19, 1-(8-Hydroxyquinolin-7-yl)-3-(4-trifluoromethylphenyl)urea] | 1500 nM
3 | CCOc1ccccc1NC(=O)Nc1ccc2cccnc2c1O [Compound A20, 1-(2-Ethoxyphenyl)-3-(8-hydroxyquinolin-7-yl)-urea] | 210 nM
4 | O=C(Nc1cc(Cl)c2cccnc2c1O)C(c1ccccc1)c1ccccc1 [Compound A2, N-(5-chloro-8-hydroxyquinolin-7-yl)-2,2-diphenylacetamide] | 2100 nM
5 | O=C(Nc1cc(Cl)c2cccnc2c1O)C(Cc1ccccn1)c1ccccc1 (stereo not drawn) [Compound A3, N-(5-chloro-8-hydroxyquinolin-7-yl)-2-phenyl-3-pyridin-2-ylpropionamide] | 1100 nM
6 | O=C(Nc1cc(Cl)c2cccnc2c1O)NC(c1ccccc1)c1ccccn1 (stereo not drawn) [Compound A14, 1-(5-chloro-8-hydroxyquinolin-7-yl)-3-(phenylpyridin-2-ylmethyl)urea] | 90 nM
